Measured values as given in patent publication US20070249710A1, “Biaromatic compounds and cosmetic/pharmaceutical applications thereof” (GALDERMA RESEARCH & DEVELOPMENT, priority 2004, published 2007).

How the values were obtained:
[1] = target: T1, RARbeta (Homo sapiens, UniProt P10826); test: Transactivation test, HeLa reporter cells (RARbeta); type: cell-based
T1 sequence (P10826 183-417 limits assumed): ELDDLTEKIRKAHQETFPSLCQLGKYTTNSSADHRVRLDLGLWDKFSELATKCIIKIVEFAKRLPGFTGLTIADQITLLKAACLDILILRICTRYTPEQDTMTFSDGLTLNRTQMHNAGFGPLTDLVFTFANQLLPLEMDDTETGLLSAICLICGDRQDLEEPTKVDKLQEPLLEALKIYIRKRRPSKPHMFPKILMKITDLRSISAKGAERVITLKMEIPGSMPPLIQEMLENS
Protocol: (§1) The activation of the receptors by an agonist (activator) in HeLa cells results in the expression of a reporter gene, luciferase, which, in the presence of a substrate, generates light. It is therefore possible to measure the activation of the receptors by quantifying the luminescence produced after incubation of the cells in the presence of a reference antagonist. The activator products displace the antagonist from its site, thus allowing activation of the receptor. The measurement of the activity is carried out by quantifying the increase in the light produced. This measurement makes it possible to determine the activating activity of the compound for use in the invention.
(§2) In this study, a constant which is the affinity of the molecule for the receptor is determined. Since this value can fluctuate depending on the basal activity and the expression of the receptor, it is designated apparent Kd (KdApp). […]
(§3) These cross curves make it possible to determine the AC50 values (concentration at which 50% activation is observed) for the reference ligand at various concentrations of product to be tested. These AC50 values are used to calculate the Schild regression by plotting a straight line corresponding to the Schild equation (“quantitation in receptor pharmacology”, Terry P. Kenakin, Receptors and Channels, 2001, 7, 371-385).
(§4) In the case of an agonist, the AC50 value (concentration that gives 50% of the activity) is calculated by plotting the curve of the product at the concentration of the reference ligand that gives 80% activation. The percentage activation which corresponds to the maximum level of activity obtained is also measured. […]
(§5) The culture medium is removed by turning the plates upside down and 100 μl of a 1:1 PBS (phosphate buffer solution)/luciferin mixture are added to each well. After 5 minutes, the plates are read with a luminescence reader.

[2] = target: T2, RARgamma (Homo sapiens, UniProt P13631); test: Transactivation test, HeLa reporter cells (RARgamma); type: cell-based; conditions: for specificity for RARgamma in comparison with RARalpha and RARbeta: transactivation test, in words
T2 sequence (P13631 185-419 limits assumed): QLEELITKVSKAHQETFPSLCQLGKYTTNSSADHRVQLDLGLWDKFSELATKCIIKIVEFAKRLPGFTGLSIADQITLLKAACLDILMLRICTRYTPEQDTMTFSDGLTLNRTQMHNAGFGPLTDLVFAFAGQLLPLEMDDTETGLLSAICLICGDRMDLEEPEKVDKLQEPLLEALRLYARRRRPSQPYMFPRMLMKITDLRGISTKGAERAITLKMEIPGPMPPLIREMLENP
Protocol: as §1
In this study, a constant which is the affinity of the molecule for the receptor is determined. Since this value can fluctuate depending on the basal activity and the expression of the receptor, it is designated apparent Kd (KdApp).
To determine this constant, “cross curves” for the product to be tested (2-hydroxy-4-[2-hydroxyimino-2-(5,5,8,8-tetramethyl-5,6,7,8-tetrahydronaphthalen-2-yl)ethoxy]benzoic acid), against a reference antagonist, otherwise called reference ligand, 4-(5,5-dimethyl-8-p-tolyl-5,6-dihydronaphthalen-2-ylethynyl)benzoic acid, are produced. The product to be tested is used at 10 concentrations and the reference antagonist at 7 concentrations. In each well (of a 96-well plate), the cells are in contact with one concentration of the product to be tested and one concentration of the reference antagonist.
Measurements are also carried out for the total agonist control, otherwise called 100% control (4-[2-(5,5,8,8-tetramethyl-5,6,7,8-tetrahydronaphthalen-2-yl)propenyl]benzoic acid), and the inverse agonist control, otherwise called 0% control, 4-{(E)-3-[4-(4-tert-butylphenyl)-5,5,8,8-tetramethyl-5,6,7,8-tetrahydronaphthalen-2-yl]-3-oxopropenyl}benzoic acid.
as §3
In the case of an agonist, the AC50 value (concentration that gives 50% of the activity) is calculated by plotting the curve of the product at the concentration of the reference ligand that gives 80% activation. The percentage activation which corresponds to the maximum level of activity obtained is also measured.
The HeLa cell lines used are stable transfectants containing the plasmids ERE-βGlob-Luc-SV-Neo (reporter gene) and RAR (α, β, γ) ER-DBD-puro. These cells are seeded into 96-well plates at a rate of 10,000 cells per well in 100 μl of DMEM medium without phenol red, supplemented with 10% of delipidized calf serum. The plates are then incubated at 37° C., 7% CO2 for 4 hours. […]
as §5

[3] = target: T3, RARalpha (Homo sapiens, UniProt P10276); test: Transactivation test, HeLa reporter cells (RARalpha); type: cell-based
T3 sequence (P10276 183-417 limits assumed): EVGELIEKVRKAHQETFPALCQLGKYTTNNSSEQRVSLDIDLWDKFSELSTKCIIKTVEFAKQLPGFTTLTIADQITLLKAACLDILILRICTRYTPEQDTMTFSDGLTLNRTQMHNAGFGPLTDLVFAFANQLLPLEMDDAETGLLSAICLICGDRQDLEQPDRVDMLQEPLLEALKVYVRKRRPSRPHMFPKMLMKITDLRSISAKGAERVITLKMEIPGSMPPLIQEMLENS
Protocol: as §1, §2, §3, §4, §5

[4] = concentration that gives 50% of the activity, HeLa luciferase reporter

For CC1(C)CCC(C)(C)c2cc(C(COc3ccc(C(=O)O)c(O)c3)=NO)ccc21 [Acid compound of the invention, 2-hydroxy-4-[2-hydroxyimino-2-(5,5,8,8-tetramethyl-5,6,7,8-tetrahydronaphthalen-2-yl)ethoxy]benzoic acid], the Kd ([1]; apparent Kd, Schild regression against reference antagonist, HeLa luciferase reporter, read-out: RARbeta Kdapp) was 1030 nM, the “RARbeta % Activation” value ([1]; at 5 μM, maximum level of activity) was 100% and the AC50 [1, 4] was 600 nM. It also gave a Kd ([2]; apparent Kd, Schild regression against reference antagonist, HeLa luciferase reporter, read-out: RARgamma Kdapp) of 8 nM, an RARgamma % activation ([2]; at 0.04 μM, maximum level of activity) of 100% and an AC50 [2, 4] of 9 nM. The “specificity for RARgamma in comparison with RARalpha and RARbeta” value ([2]; listed as 2-Hydroxy-4-[2-hydroxyimino-2-(5,5,8,8-tetramethyl-5,6,7,8-tetrahydronaphthalen-) was “selective agonist or activator of the RARgamma receptor”, the “specificity for RARgamma in comparison with RARalpha and RARbeta” value ([2]; listed as 2-hydroxy-4-[2-hydroxyimino-2-(5,5,8,8-tetramethyl-5,6,7,8-tetrahydronaphthalen-) was “great specificity for the receptor subtype RARgamma” and the Kd ([3]; apparent Kd, Schild regression against reference antagonist, HeLa luciferase reporter, read-out: RARalpha Kdapp) was 4.06 µM. For the same compound, the RARalpha % activation ([3]; at 10 μM, maximum level of activity) was 100% and the AC50 [3, 4] was 1700 nM.
Compound CC(C)COC(=O)c1ccc(OCC(=NO)c2ccc3c(c2)C(C)(C)CCC3(C)C)cc1O [Example 3, isobutyl 2-hydroxy-4-[2-hydroxyimino-2-(5,5,8,8-tetramethyl-5,6,7,8-tetrahydronaphthalen-2-yl)ethoxy]benzoate] has a melting point of 96 °C.
Compound CCOC(=O)c1ccc(OCC(=NO)c2ccc3c(c2)C(C)(C)CCC3(C)C)cc1O [Example 1, ethyl 2-hydroxy-4-[2-hydroxyimino-2-(5,5,8,8-tetramethyl-5,6,7,8-tetrahydronaphthalen-2-yl)ethoxy]benzoate] has a melting point of 130 °C.
Work on CC(C)OC(=O)c1ccc(OCC(=NO)c2ccc3c(c2)C(C)(C)CCC3(C)C)cc1O [Example 2, isopropyl 2-hydroxy-4-[2-hydroxyimino-2-(5,5,8,8-tetramethyl-5,6,7,8-tetrahydronaphthalen-2-yl)ethoxy]benzoate] yielded a melting point of 130 °C.
